We go through 25 compounds from ChEMBL document CHEMBL1141537, “Design and synthesis of dihydroindazolo[5,4-a]pyrrolo[3,4-c]carbazole oximes as potent dual inhibitors of TIE-2 and VEGF-R2 receptor tyrosine kinases” (Bioorg Med Chem Lett, 2008).

Each structure is given as a SMILES string.

One series deals with Angiopoietin-1 receptor (Homo sapiens, UniProt Q02763). Put plainly: Inhibition of human recombinant TIE2 by HTRF assay.
Series [1] has as its system HUVEC. Put plainly: Cytotoxicity against HUVEC cells. The conditions noted are these: human. Format: cell-based.
A further series relates to Mus musculus. Put plainly: Toxicity in A375 cells xenografted mouse melanoma model assessed as mortality. Format: organism-based, A-375. The conditions noted are these: in vivo.
The nature of series [2]: AUC (0 to infinity) in rat at 1 mg/kg, iv. The series is classed as ADME, organism-based. Details: time infinity, dose 1 mg/kg, route intravenous. The conditions noted are these: plasma.
For series [3], the system named is A-375. The experiment in a line: Antitumor activity against human A375 cells xenografted mouse assessed as tumor growth inhibition at 10 mg/kg, po bid relative to control. Format: functional. On the set-up: scale not given: the % may be the effect or the level left.
The species named for a further series is Rattus norvegicus. Put plainly: Ex vivo antiangiogenic activity in rat aortic ring explant assessed as inhibition of microvessel outgrowth after 10 days. The conditions noted are these: Aorta, 240 h. The series is classed as functional.
Series [4] concerns A-375. Put plainly: Cytotoxicity against human A375 cells. Format: functional, cell-based.
The nature of series [5]: Half life in rat at 1 mg/kg, iv. Format: ADME, organism-based. On the set-up: dose 1 mg/kg, route intravenous. The conditions noted are these: in vivo.
The nature of series [6]: Oral bioavailability in rat at 5 mg/kg. The conditions noted are these: in vivo. The series is classed as ADME, organism-based.
Series [7] addresses Vascular endothelial growth factor receptor 1 (Homo sapiens, UniProt P17948). Put plainly: Inhibition of VEGFR1.
Series [8] is described as follows: Volume of distribution in rat at 1 mg/kg, iv. The conditions noted are these: in vivo. Format: ADME, organism-based. Details: dose 1 mg/kg, route intravenous.
Series [9] is described as follows: Cmax in rat at 5 mg/kg, po. The series is classed as ADME, organism-based. Details: dose 5 mg/kg, route oral. The conditions noted are these: in vivo.
Series [10] concerns the target Epidermal growth factor receptor (Homo sapiens, UniProt P00533). Put plainly: Inhibition of EGFR.
Series [11] in a line: Clearance in rat at 1 mg/kg, iv. Format: ADME, organism-based. On the set-up: dose 1 mg/kg, route intravenous. To be noted: in vivo.
Series [12] addresses Vascular endothelial growth factor receptor 3 (Homo sapiens, UniProt P35916). Put plainly: Inhibition of VEGFR3.
Series [13] relates to HUVEC. Put plainly: Inhibition of VEGF-induced HUVEC cells capillary tube formation relative to control. The series is classed as functional, cell-based. The conditions noted are these: Homo sapiens.
Series [14] addresses Vascular endothelial growth factor receptor 2 (Homo sapiens, UniProt P35968). The experiment in a line: Inhibition of human recombinant VEGFR2 by HTRF assay.
The nature of series [15]: Half life in rat at 5 mg/kg, po. Format: ADME, organism-based. Details: dose 5 mg/kg, route oral. The conditions noted are these: in vivo.
The subject of series [16] is A-375. Put plainly: Antitumor activity against human A375 cells xenografted mouse assessed as partial tumor regression at 10 mg/kg, po bid relative to control. Format: functional.
The target of series [17] is Proto-oncogene tyrosine-protein kinase Src (Homo sapiens, UniProt P12931). The experiment in a line: Inhibition of c-src.
In the next series the target is Insulin receptor (Homo sapiens, UniProt P06213). Put plainly: Inhibition of IR.
Series [18] is described as follows: AUC (0 to infinity) in rat at 5 mg/kg, po. Format: ADME, organism-based. On the set-up: time infinity, dose 5 mg/kg, route oral. The conditions noted are these: plasma.

Angiopoietin-1 receptor, sequence (Q02763 whole entry): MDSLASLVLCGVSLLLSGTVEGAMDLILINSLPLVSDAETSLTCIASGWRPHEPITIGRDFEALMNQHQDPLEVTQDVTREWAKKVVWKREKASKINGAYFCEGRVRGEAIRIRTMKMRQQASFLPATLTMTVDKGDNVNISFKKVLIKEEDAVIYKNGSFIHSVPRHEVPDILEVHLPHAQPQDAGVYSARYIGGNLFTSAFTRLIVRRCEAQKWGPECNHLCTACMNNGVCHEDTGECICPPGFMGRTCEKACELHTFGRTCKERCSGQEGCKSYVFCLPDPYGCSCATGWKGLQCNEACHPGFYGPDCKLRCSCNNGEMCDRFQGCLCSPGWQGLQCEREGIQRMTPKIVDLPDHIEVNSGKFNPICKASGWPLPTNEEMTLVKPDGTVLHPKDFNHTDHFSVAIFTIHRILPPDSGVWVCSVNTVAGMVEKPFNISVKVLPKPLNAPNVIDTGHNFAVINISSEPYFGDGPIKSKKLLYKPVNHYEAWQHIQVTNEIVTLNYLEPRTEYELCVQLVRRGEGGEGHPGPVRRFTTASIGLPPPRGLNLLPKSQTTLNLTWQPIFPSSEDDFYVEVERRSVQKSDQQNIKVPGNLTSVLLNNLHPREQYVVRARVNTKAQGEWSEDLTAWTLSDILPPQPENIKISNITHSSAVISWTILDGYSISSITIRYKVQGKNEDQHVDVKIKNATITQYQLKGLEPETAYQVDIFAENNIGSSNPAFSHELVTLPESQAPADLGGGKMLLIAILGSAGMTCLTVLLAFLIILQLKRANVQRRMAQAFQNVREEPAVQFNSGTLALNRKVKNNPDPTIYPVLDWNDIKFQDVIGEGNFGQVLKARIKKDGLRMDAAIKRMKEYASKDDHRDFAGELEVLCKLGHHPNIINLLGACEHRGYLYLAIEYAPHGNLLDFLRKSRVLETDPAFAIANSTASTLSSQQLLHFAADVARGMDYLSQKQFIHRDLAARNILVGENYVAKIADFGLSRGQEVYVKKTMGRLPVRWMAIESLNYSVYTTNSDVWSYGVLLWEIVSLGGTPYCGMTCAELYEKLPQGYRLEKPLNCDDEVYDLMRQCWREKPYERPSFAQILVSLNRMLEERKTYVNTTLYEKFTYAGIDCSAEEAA
Epidermal growth factor receptor, sequence (P00533 whole entry): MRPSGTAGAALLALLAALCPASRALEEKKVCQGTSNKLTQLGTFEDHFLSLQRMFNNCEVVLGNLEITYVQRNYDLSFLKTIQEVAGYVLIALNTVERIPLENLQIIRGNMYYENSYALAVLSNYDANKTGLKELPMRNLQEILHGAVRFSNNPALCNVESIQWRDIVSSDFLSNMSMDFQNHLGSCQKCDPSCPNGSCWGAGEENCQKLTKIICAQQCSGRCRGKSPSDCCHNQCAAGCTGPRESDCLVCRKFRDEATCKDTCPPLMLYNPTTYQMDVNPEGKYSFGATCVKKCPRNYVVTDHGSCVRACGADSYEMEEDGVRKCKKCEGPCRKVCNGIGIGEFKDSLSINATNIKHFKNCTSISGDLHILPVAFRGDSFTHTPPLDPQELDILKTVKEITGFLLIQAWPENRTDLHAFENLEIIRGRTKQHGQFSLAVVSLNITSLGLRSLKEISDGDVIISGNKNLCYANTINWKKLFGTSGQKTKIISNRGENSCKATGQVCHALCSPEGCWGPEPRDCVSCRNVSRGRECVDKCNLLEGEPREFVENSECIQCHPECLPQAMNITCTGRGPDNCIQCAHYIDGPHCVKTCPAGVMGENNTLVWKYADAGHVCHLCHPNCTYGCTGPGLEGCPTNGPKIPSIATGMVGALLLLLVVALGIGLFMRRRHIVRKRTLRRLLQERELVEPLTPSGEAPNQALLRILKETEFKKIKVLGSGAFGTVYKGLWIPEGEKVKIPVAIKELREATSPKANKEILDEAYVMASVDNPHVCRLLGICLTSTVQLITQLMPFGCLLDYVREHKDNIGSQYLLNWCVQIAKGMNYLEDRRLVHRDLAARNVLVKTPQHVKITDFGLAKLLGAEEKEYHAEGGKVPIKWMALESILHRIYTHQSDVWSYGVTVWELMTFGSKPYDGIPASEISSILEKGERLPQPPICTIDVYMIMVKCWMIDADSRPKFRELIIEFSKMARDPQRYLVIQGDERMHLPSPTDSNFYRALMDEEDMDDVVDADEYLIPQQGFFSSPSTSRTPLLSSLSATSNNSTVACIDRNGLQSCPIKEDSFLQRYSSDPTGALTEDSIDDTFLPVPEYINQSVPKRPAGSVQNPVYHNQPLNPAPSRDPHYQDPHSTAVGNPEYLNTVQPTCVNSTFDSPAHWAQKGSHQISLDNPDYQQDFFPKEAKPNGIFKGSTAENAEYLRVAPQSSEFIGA
Proto-oncogene tyrosine-protein kinase Src, sequence (P12931 2-536 limits assumed): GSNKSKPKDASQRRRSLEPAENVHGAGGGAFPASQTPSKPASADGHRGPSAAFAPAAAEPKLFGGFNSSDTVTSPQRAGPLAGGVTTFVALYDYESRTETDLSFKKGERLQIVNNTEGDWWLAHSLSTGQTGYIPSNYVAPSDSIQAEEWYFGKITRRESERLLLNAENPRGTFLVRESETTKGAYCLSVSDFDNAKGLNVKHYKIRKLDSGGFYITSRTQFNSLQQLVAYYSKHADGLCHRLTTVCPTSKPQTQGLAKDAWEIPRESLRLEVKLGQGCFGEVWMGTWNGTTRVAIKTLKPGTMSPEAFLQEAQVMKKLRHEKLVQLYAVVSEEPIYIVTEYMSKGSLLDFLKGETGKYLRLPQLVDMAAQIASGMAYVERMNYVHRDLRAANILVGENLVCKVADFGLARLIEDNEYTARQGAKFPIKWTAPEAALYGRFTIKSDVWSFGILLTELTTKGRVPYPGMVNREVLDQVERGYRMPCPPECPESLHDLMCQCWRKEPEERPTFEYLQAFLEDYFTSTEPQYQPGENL
Vascular endothelial growth factor receptor 2, sequence (P35968 whole entry): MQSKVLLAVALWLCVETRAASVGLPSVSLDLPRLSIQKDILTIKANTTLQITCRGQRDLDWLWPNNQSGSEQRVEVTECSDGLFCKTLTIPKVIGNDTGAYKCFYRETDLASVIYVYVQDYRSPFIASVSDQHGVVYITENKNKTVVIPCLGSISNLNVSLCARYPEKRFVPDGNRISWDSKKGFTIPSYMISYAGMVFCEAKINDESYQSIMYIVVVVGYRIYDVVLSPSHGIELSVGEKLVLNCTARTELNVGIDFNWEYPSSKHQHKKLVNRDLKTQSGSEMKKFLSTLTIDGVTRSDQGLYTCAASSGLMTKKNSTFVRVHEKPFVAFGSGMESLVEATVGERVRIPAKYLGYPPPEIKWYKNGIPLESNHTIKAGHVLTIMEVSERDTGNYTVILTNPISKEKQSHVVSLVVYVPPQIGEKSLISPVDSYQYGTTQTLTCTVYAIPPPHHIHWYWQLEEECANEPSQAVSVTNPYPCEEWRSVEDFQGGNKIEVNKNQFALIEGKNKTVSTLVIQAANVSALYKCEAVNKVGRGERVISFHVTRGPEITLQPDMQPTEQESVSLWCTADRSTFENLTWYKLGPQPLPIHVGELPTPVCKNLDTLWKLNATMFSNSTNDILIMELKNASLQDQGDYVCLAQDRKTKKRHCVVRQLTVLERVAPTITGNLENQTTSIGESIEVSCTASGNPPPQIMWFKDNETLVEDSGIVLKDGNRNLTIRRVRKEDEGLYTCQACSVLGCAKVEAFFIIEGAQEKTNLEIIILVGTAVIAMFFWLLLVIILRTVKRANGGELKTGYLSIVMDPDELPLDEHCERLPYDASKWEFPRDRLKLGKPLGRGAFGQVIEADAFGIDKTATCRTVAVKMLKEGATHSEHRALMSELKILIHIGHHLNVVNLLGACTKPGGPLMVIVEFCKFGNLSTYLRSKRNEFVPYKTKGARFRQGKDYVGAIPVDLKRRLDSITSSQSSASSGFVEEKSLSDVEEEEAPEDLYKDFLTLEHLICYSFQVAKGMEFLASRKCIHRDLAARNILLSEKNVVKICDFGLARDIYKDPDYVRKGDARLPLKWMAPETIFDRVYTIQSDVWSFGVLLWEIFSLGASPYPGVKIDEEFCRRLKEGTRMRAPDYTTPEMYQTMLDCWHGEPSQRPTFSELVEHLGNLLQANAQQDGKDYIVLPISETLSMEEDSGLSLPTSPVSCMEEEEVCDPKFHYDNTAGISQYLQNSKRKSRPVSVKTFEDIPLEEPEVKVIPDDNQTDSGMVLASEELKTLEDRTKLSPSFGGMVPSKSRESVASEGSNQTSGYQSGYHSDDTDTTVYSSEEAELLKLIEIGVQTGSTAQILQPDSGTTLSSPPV

Consider `CCO/N=C(\C)c1ccc2c(c1)c1c3c(c4c(c1n2CC(C)C)CCc1nn(C)cc1-4)C(=O)NC3`, for which, at Angiopoietin-1 receptor, the IC50 was determined as 25 nM.

For the compound `C/C(=N\OC(C)C)c1ccc2[nH]c3c4c(c5c(c3c2c1)CNC5=O)-c1cn(C)nc1CC4`, the IC50 at Angiopoietin-1 receptor is 28 nM.

For the compound `CCn1c2ccc(/C(C)=N/OC)cc2c2c3c(c4c(c21)CCc1nn(C)cc1-4)C(=O)NC3`, the concentration for half-maximal inhibition (IC50) on Angiopoietin-1 receptor was 300 nM.

For the compound `C/C(=N\OC(C)C)c1ccc2c(c1)c1c3c(c4c(c1n2CC(C)C)CCc1nn(C)cc1-4)C(=O)NC3`, the IC50 on Angiopoietin-1 receptor turned out to be 52 nM.

Take `CCCCn1c2ccc(/C(C)=N/OC)cc2c2c3c(c4c(c21)CCc1nn(C)cc1-4)C(=O)NC3`: the IC50 at Angiopoietin-1 receptor came to 108 nM.

For `CCn1c2ccc(/C(C)=N/OCC(C)C)cc2c2c3c(c4c(c21)CCc1nn(C)cc1-4)C(=O)NC3`, the IC50 at Angiopoietin-1 receptor was found to be 45 nM.

For the compound `CO/N=C(\C)c1ccc2c(c1)c1c3c(c4c(c1n2CC(C)C)CCc1nn(C)cc1-4)C(=O)NC3`, the Activity entry in the series on HUVEC [1] was “Non-toxic”; in the series on Mus musculus, “Non-toxic”; in the series with A-375 [3], 80%; with A-375 [16], 38%. Moreover, the AUC(0-inf) amounted to 2760 ng·h/mL in series [2] and 9060 ng·h/mL in series [18]. The EC50 in the series listed under Rattus norvegicus was determined as 3 nM; with A-375 [4] it was 70 nM; with HUVEC [13] it was 1 nM. The half-life in series [5] is 1.4 h; in [15] it was 6.5 h. The same compound had a bioavailability in series [6] of 66%. In addition, the IC50 in series [7] is 8 nM; in [10] it was > 1000 nM; in series [12] it was 10 nM; on Angiopoietin-1 receptor, 30 nM; in series [14] it was 7 nM; in series [17], 43 nM. Moreover, at Insulin receptor, the half-maximal inhibitory concentration (IC50) is > 1000 nM. Also, the Vd in [8] amounted to 0.8 L/kg. Also, the peak level in [9] (Cmax) was 874 ng/mL. In addition, in series [11], the clearance turned out to be 6.5 mL/min/kg.

Consider `CCO/N=C(\C)c1ccc2[nH]c3c4c(c5c(c3c2c1)CNC5=O)-c1cn(C)nc1CC4`, for which the half-maximal inhibitory concentration (IC50) at Angiopoietin-1 receptor is 23 nM.

As for `COc1ccc(-c2oc3ncnc(N)c3c2-c2ccc(NC(=O)Nc3c(F)cccc3C(F)(F)F)cc2)cc1`, the IC50 at Angiopoietin-1 receptor stood at 2 nM.

Regarding `CO/N=C/c1ccc2[nH]c3c4c(c5c(c3c2c1)CNC5=O)-c1cn(C)nc1CC4`, the IC50 at Angiopoietin-1 receptor turned out to be 148 nM.

For the compound `C/C(=N\OC(C)(C)C)c1ccc2[nH]c3c4c(c5c(c3c2c1)CNC5=O)-c1cn(C)nc1CC4`, the IC50 at Angiopoietin-1 receptor stood at 93 nM.

On to `Cn1cc2c(n1)CCc1c-2c2c(c3c1[nH]c1ccccc13)CNC2=O`, for which the IC50 at Angiopoietin-1 receptor was determined as 1300 nM.

Regarding `CCO/N=C(\C)c1ccc2c(c1)c1c3c(c4c(c1n2C(C)C)CCc1nn(C)cc1-4)C(=O)NC3`, the AUC(0-inf) in series [2] turned out to be 2300 ng·h/mL; in [18], 3610 ng·h/mL. For the same compound, the half-life in series [5] is 2 h; in [15], 3.2 h. The same compound returned a bioavailability in series [6] of 31%. In addition, the Vd in [8] was determined as 1.3 L/kg. In series [9], this compound gave a peak concentration (Cmax) of 637 ng/mL. The IC50 in series [10] was > 1000 nM; at Angiopoietin-1 receptor, 26 nM; in [14] it was 4 nM; in [17], 14 nM; against Insulin receptor, > 1000 nM. This compound had a clearance in series [11] of 7.4 mL/min/kg.

Consider `C/C(=N\OCC(C)C)c1ccc2c(c1)c1c3c(c4c(c1n2CC(C)C)CCc1nn(C)cc1-4)C(=O)NC3`, for which the IC50 at Angiopoietin-1 receptor was 23 nM.

`CO/N=C(\C)c1ccc2c(c1)c1c3c(c4c(c1n2C(C)C)CCc1nn(C)cc1-4)C(=O)NC3`: the IC50 at Angiopoietin-1 receptor was found to be 97 nM.

As to `C/C(=N\OC(C)C)c1ccc2c(c1)c1c3c(c4c(c1n2C(C)C)CCc1nn(C)cc1-4)C(=O)NC3`, the IC50 on Angiopoietin-1 receptor amounted to 66 nM.

For the compound `CCO/N=C(/c1ccc2[nH]c3c4c(c5c(c3c2c1)CNC5=O)-c1cn(C)nc1CC4)C(C)C`, the IC50 at Angiopoietin-1 receptor came to 92 nM.

`C/C(=N\OCC(C)C)c1ccc2[nH]c3c4c(c5c(c3c2c1)CNC5=O)-c1cn(C)nc1CC4`: the IC50 at Angiopoietin-1 receptor was found to be 10 nM.

For the compound `CO/N=C(\C)c1ccc2c(c1)c1c3c(c4c(c1n2C)CCc1nn(C)cc1-4)C(=O)NC3`, the IC50 on Angiopoietin-1 receptor was determined as 347 nM.

`C/C(=N\OCC(C)C)c1ccc2c(c1)c1c3c(c4c(c1n2C(C)C)CCc1nn(C)cc1-4)C(=O)NC3`: at Angiopoietin-1 receptor, the IC50 stood at 46 nM.

With `CO/N=C(\C)c1ccc2[nH]c3c4c(c5c(c3c2c1)CNC5=O)-c1cn(C)nc1CC4`, at Angiopoietin-1 receptor, the IC50 was determined as 71 nM.

Take `CO/N=C(/c1ccc2[nH]c3c4c(c5c(c3c2c1)CNC5=O)-c1cn(C)nc1CC4)C(C)C`: the IC50 on Angiopoietin-1 receptor stood at 264 nM.

As to `CCO/N=C/c1ccc2[nH]c3c4c(c5c(c3c2c1)CNC5=O)-c1cn(C)nc1CC4`, at Angiopoietin-1 receptor, the IC50 stood at 264 nM.

`CCCn1c2ccc(/C(C)=N/OC)cc2c2c3c(c4c(c21)CCc1nn(C)cc1-4)C(=O)NC3`: at Angiopoietin-1 receptor, the IC50 was 30 nM.

For `C/C(=N\O)c1ccc2[nH]c3c4c(c5c(c3c2c1)CNC5=O)-c1cn(C)nc1CC4`, the IC50 at Angiopoietin-1 receptor was 44 nM.
